The values that follow come from patent US20240246964A1 (Arbutus Biopharma Corporation, priority 2021, published 2024).

For one assay, the target named is human PD-L1 (Homo sapiens (Human), UniProt Q9NZQ7). Put plainly: T cell activation luciferase reporter cell culture system (T Cell Activation Assay). The format is cell-based. Conditions: luciferase reporter assay; PD-L1 aAPC/CHO-K1 cells with PD-1 effector Jurkat T cells. A general note: A reporter such as luciferase makes a cellular process visible.
For assay [1], the target named is PD-L1 His protein / PD-1 Fc protein (Homo sapiens (Human), UniProt Q9NZQ7). Put plainly: HTRF Assay (PD-1/PD-L1 interaction). The format is binding. Conditions: PD-L1 His 6 nM, PD-1 Fc 6 nM. For orientation: In TR-FRET formats the signal depends on donor and acceptor labels being close together.

Structures are written as SMILES.

Chain of PD-L1 His protein / PD-1 Fc protein (Q9NZQ7 19-238): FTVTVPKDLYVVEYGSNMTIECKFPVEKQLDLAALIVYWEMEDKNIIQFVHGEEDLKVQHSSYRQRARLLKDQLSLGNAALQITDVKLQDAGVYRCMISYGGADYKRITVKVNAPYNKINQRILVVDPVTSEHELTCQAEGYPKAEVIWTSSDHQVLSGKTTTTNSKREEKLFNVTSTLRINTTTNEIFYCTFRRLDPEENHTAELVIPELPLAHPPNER
Chain of human PD-L1 (Q9NZQ7 19-290): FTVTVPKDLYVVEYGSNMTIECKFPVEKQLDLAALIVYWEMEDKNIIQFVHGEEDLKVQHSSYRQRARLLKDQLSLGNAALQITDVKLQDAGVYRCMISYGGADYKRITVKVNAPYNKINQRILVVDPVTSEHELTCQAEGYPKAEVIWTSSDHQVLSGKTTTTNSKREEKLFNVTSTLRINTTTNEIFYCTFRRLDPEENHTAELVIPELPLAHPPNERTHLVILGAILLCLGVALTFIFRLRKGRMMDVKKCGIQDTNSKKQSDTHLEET

As for `COc1cc(-c2nccc(-c3cccc(-c4cn5cc(CNC[C@@H]6CCC(=O)N6)nc5cn4)c3Cl)c2Cl)ccc1CNC[C@@H]1CCC(=O)N1` [Example 291, (S)-5-((((6-(2-Chloro-3-(3-chloro-2-(3-methoxy-4-(((((S)-5-oxopyrrolidin-2-yl)methyl)amino)methyl)phenyl)pyridin-4-yl)phenyl)imidazo[1,2-a]pyrazin-2-yl)methyl)amino)methyl)pyrrolidin-2-one], the EC50 at human PD-L1 is 376 nM. In addition, the IC50 in assay [1] came to 1.41 nM.

`COc1cc(-c2nccc(-c3cccc4c3CC[C@@H]4Oc3nc(OC)c(CN4CC5(CNC(=O)C5)C4)cc3C(F)(F)F)c2Cl)ccc1CN1CC2(CNC(=O)C2)C1` [Example 292, (S)-2-(4-(3-chloro-4-(1-((6-methoxy-5-((7-oxo-2,6-diazaspiro[3.4]octan-2-yl)methyl)-3-(trifluoromethyl)pyridin-2-yl)oxy)-2,3-dihydro-1H-inden-4-yl)pyridin-2-yl)-2-methoxybenzyl)-2,6-diazaspiro[3.4]octan-7-one] had an EC50 on human PD-L1 of 388 nM. 4.4 nM corresponded to half-maximal inhibition in assay [1] (IC50).

`COc1cc(-c2nccc(-c3cccc(-c4ccc(CNC[C@H](C)O)c(OC)n4)c3Cl)c2Cl)cc2c1CN(CCC(=O)O)CC2` [Example 293, (S)-3-(6-(3-Chloro-4-(2-chloro-3-(5-(((2-hydroxypropyl)amino)methyl)-6-methoxypyridin-2-yl)phenyl)pyridin-2-yl)-8-methoxy-3,4-dihydroisoquinolin-2(1H)-yl)propanoic acid] yielded an EC50 on human PD-L1 of 60.5 nM. In assay [1], this compound showed an IC50 of 0.27 nM.

On human PD-L1, `COc1cc(-c2nccc(-c3cccc(-c4ccc(CN5CC6(CNC(=O)C6)C5)c(OC)n4)c3Cl)c2Cl)cc2c1CN(CCC(=O)O)CC2` [Example 294, 3-(6-(3-Chloro-4-(2-chloro-3-(6-methoxy-5-((7-oxo-2,6-diazaspiro[3.4]octan-2-yl)methyl)pyridin-2-yl)phenyl)pyridin-2-yl)-8-methoxy-3,4-dihydroisoquinolin-2(1H)-yl)propanoic acid] displayed a 50% effective concentration (EC50) of 73.9 nM. Besides, the IC50 in assay [1] stood at 0.24 nM.

Regarding `COC(=O)C1(CN2CCc3cc(-c4nccc(-c5cccc(-c6ccc(CN7CC8(CNC(=O)C8)C7)c(OC)n6)c5Cl)c4Cl)cc(OC)c3C2)CC1` [Example 295, Methyl 1-((6-(3-chloro-4-(2-chloro-3-(6-methoxy-5-((7-oxo-2,6-diazaspiro [3.4]octan-2-yl)methyl)pyridin-2-yl)phenyl)pyridin-2-yl)-8-methoxy-3,4-dihydroisoquinolin-2(1H)-yl)methyl)cyclopropane-1-carboxylate], the EC50 on human PD-L1 turned out to be 233 nM. Besides, in assay [1], the IC50 was 2.1 nM.

As for `COc1cc(-c2nccc(-c3cccc(-c4ccc(CN5CC6(CNC(=O)C6)C5)c(OC)n4)c3Cl)c2Cl)cc2c1CN(CC(O)CF)CC2` (stereo not shown) [Example 296, 2-((6-(2-Chloro-3-(3-chloro-2-(2-(3-fluoro-2-hydroxypropyl)-8-methoxy-1,2,3,4-tetrahydroisoquinolin-6-yl)pyridin-4-yl)phenyl)-2-methoxypyridin-3-yl)methyl)-2,6-diazaspiro[3.4]octan-7-one], on human PD-L1, the EC50 amounted to 49.8 nM. In assay [1], half-maximal inhibition (IC50) required 3.3 nM.

`COc1cc(-c2nccc(-c3cccc(-c4ccc(CN5CC6(CNC(=O)C6)C5)c(OC)n4)c3Cl)c2Cl)cc2c1CN(CC1(C(=O)O)CC1)CC2` [Example 297, 1-((6-(3-Chloro-4-(2-chloro-3-(6-methoxy-5-((7-oxo-2,6-diazaspiro[3.4]octan-2-yl)methyl)pyridin-2-yl)phenyl)pyridin-2-yl)-8-methoxy-3,4-dihydroisoquinolin-2(1H)-yl)methyl)cyclopropane-1-carboxylic acid] registered an EC50 at human PD-L1 of 422 nM. Besides, in assay [1], the midpoint of inhibition, the IC50, lay at 0.29 nM.

Take `COc1cc(-c2nccc(-c3cccc(-c4ccc(CNC5CCOCC5)c(OC)n4)c3Cl)c2Cl)ccc1CNC1CCOCC1` [Example 298, N-((6-(2-chloro-3-(3-chloro-2-(3-methoxy-4-(((tetrahydro-2H-pyran-4-yl)amino)methyl)phenyl)pyridin-4-yl)phenyl)-2-methoxypyridin-3-yl)methyl)tetrahydro-2H-pyran-4-amine]: the EC50 at human PD-L1 was determined as 14.6 nM. In assay [1], this compound registered an IC50 of 1.78 nM.

Take `COc1cc(-c2nccc(-c3cccc(-c4ccc(CNC5CCS(=O)(=O)CC5)c(OC)n4)c3Cl)c2Cl)ccc1CNC1CCS(=O)(=O)CC1` [Example 299, 4-(((6-(2-Chloro-3-(3-chloro-2-(4-(((1,1-dioxidotetrahydro-2H-thiopyran-4-yl)amino)methyl)-3-methoxyphenyl)pyridin-4-yl)phenyl)-2-methoxypyridin-3-yl)methyl)amino)tetrahydro-2H-thiopyran 1,1-dioxide]: on human PD-L1, the midpoint of the response, the EC50, lay at 22.6 nM. In assay [1], this compound yielded an IC50 of 0.79 nM.

Take `COc1cc(-c2nccc(-c3cccc(-c4ccc(CNC5CN(C(C)=O)C5)c(OC)n4)c3Cl)c2Cl)ccc1CNC1CN(C(C)=O)C1` [Example 300, 1-(3-(((6-(3-(2-(4-(((1-Acetylazetidin-3-yl)amino)methyl)-3-methoxyphenyl)-3-chloropyridin-4-yl)-2-chlorophenyl)-2-methoxypyridin-3-yl)methyl)amino)azetidin-1-yl)ethan-1-one]: on human PD-L1, the EC50 is 282 nM. In assay [1], half-maximal inhibition (IC50) required 0.87 nM.

At human PD-L1, `COc1cc(-c2nccc(-c3cccc(-c4ccc(CNC[C@H](C)O)c(OC)n4)c3Cl)c2Cl)ccc1CNC[C@H](C)O` [Example 301, (S)-1-(((6-(2-Chloro-3-(3-chloro-2-(4-((((S)-2-hydroxypropyl)amino)methyl)-3-methoxyphenyl)pyridin-4-yl)phenyl)-2-methoxypyridin-3-yl)methyl)amino)propan-2-ol] gave an EC50 of 19.7 nM. This compound registered an IC50 in assay [1] of 0.57 nM.

The compound `COc1cc(-c2nccc(-c3cccc(-c4ccc(CNC5CC6(CCNC6=O)C5)c(OC)n4)c3Cl)c2Cl)ccc1CNC1CC2(CCNC2=O)C1` (stereo not shown) [Example 302, 2-((4-(3-Chloro-4-(2-chloro-3-(6-methoxy-5-(((5-oxo-6-azaspiro[3.4]octan-2-yl)amino)methyl)pyridin-2-yl)phenyl)pyridin-2-yl)-2-methoxybenzyl)amino)-6-azaspiro[3.4]octan-5-one] yielded an EC50 at human PD-L1 of 23.5 nM. In addition, the IC50 in assay [1] worked out at 1.11 nM.

`COc1cc(-c2nccc(-c3cccc(-c4ccc(CNCCN5CCCC5=O)c(OC)n4)c3Cl)c2Cl)ccc1CNCCN1CCCC1=O` [Example 303, 1-(2-(((6-(2-Chloro-3-(3-chloro-2-(3-methoxy-4-(((2-(2-oxopyrrolidin-1-yl)ethyl)amino)methyl)phenyl)pyridin-4-yl)phenyl)-2-methoxypyridin-3-yl)methyl)amino)ethyl)pyrrolidin-2-one] had an EC50 on human PD-L1 of 30.8 nM. The same compound yielded a 50% inhibitory concentration (IC50) in assay [1] of 2.83 nM.

In the case of `COc1nc(-c2ccnc(-c3cccc4c3CC[C@@H]4Nc3nc(OC)c(CN4CC5(CNC(=O)C5)C4)nc3C(F)(F)F)c2Cl)ccc1CN1CC2(CNC(=O)C2)C1` [Example 304, (S)-2-((3′-chloro-6-methoxy-2′-(1-((6-methoxy-5-((7-oxo-2,6-diazaspiro[3.4]octan-2-yl)methyl)-3-(trifluoromethyl)pyrazin-2-yl)amino)-2,3-dihydro-1H-inden-4-yl)-[2,4′-bipyridin]-5-yl)methyl)-2,6-diazaspiro[3.4]octan-7-one], it took 197 nM to reach a half-maximal effect at human PD-L1 (EC50). In assay [1], this compound returned an IC50 of 6.51 nM.

As a reminder, the EC50 is the concentration needed to bring the measured effect to its halfway point. Higher therefore signals lower potency in that assay. As a reminder, the IC50 is the concentration needed to halve the response being measured. Higher therefore signals weaker potency.
